Paper PMC6368403, “Identification of a bilirubin receptor that may mediate a component of cholestatic itch” (eLife, 2019)

Columns and labels:
[1] = test system: mice; assay: Cheek injection model: scratching bouts and wiping; format: in vivo, mouse
Procedure: All applicable behavioral tests were performed and analysed with the experimenter blind to genotype. […] There were no significant differences in itch between male and female mice. […] On the day before the experiment, animals were placed in the test chamber for 30 min before being subjected to a series of three mock injections with 5 min break periods in between. On the day of the experiment, animals were first allowed to acclimatize to the test chamber for 10 min before injection. […] A bout of scratching was defined as a continuous scratching movement with either hindpaw directed at the area of the injection site. In the cheek injection model, a wipe was defined as a single forepaw stroking the site of the injection. Use of both forepaws on the face or cheek was considered as grooming behavior. […] For H1R block, 30 mg/kg of cetirizine HCl (pH 7.4) was given intraperitoneally thirty minutes prior to injection of bilirubin. Licking behavior was quantified in seconds and identified as the licking of the toes or footpad of the hind paw site of injection that was neither preceded nor followed by licking of any other portion of the body.

[2] = test system: murine peritoneal mast cells; assay: Mouse peritoneal mast cell histamine release assay; format: cell-based; conditions: 100 µM bilirubin
Procedure: Adult male mice 8–12 weeks of age were sacrificed through CO2 inhalation. A total of 25 mL of mast cell dissociation media (MCDM; HBSS with 3% fetal bovine serum and 10 mM HEPES, pH 7.2) was chilled on ice before being used to make two sequential peritoneal lavages. Lavages were combined and spun at 200 g. […] Mast cells were recovered in the pellet. Mast cells were re-suspended in DMEM with 10% fetal bovine serum (FBS) and 25 ng/mL recombinant mouse stem cell factor (Sigma). Mast cells were purified as described and allowed to recover for 2 hr at 37°C. Cells were then seeded in 96-well plates coated with […] fibronectin at 300 cells/well. Plates were incubated at 37°C for 45 min before assay. For the assay, all compounds tested were diluted in CIB. Five minutes after compound addition, supernatant was aspirated and frozen at −80°C until histamine levels were determined with an HTRF histamine assay kit (Cisbio Assays) according to the manufacturer’s instructions.

[3] = test system: small-diameter DRG sensory neurons; assay: Whole-cell current-clamp recording of DRG neurons; format: cell-based, mouse; conditions: 50 µM bilirubin
Procedure: DRG neurons from all spinal levels were collected in cold DH10 media (90% Dulbecco’s modified Eagle’s medium (DMEM)/F-12, 10% FBS, penicillin (100 U/mL), and streptomycin (100 μg/mL)). DRGs were digested with a dispase (5 mg/ml)/collagenase type I (1 mg/ml) enzyme mixture at 37°C for 45 min. After trituration, cells were spun at 300 g and re-suspended in DH10 before being plated on glass coverslips coated with poly-D-lysine (0.5 mg/ml) and laminin (10 μg/ml, Invitrogen). DRGs were cultured with DH10 supplemented with 50 ng/mL NGF at 37°C.
DRG neurons from 3 to 5 week old mice were collected as described. After culture for 1–3 days, DRG neurons were transferred into a chamber with extracellular solution containing (in mM) 144 NaCl, 2.5 KCl, 2 CaCl2, 0.5 MgCl2, 5 HEPES, and 10 glucose, adjusted to pH 7.4 with NaOH. Whole-cell current-clamp recordings were performed at ~23°C using borosilicate capillary glass electrodes (Sutter Instrument) with a tip resistance of 3–5 MΩ. Internal solution contained (in mM) 80 K-acetate, 30 KCl, 40 HEPES, and 1 CaCl2, adjusted to pH 7.4 with potassium hydroxide (KOH). Small-diameter neurons with diameter 15–25 μm were chosen for patch-clamp. Data were acquired using an […] Amplifier and Digidata 1322A Digitizer with pClamp9.2 software package (Axon Instrument). […] Solutions containing 50 mM KCl were applied at the end of each cellular recording. Only neurons that could fire action potentials after adding KCl were regarded as healthy and appropriate for inclusion in data analysis.

C=CC1=C(C)/C(=C/c2[nH]c(Cc3[nH]c(/C=C4\NC(=O)C(C)=C4C=C)c(C)c3CCC(=O)O)c(CCC(=O)O)c2C)NC1=O [bilirubin, bilirubin IXα]
Wiping ([1]; 6 µg bilirubin into the cheek, 10 min): neither wiping
Scratching after cheek injection ([1]; cheek, 10 µl, 30 min): prompted dose-dependent scratching
Mast cell histamine release [2]: did not elicit a calcium response or induce appreciable histamine release
Small-diameter neurons in which action potentials were elicited ([3]; A1 KO DRG): 0 out of 60
Small-diameter neurons in which action potentials were elicited ([3]; A1 KO DRG, listed as Bilirubin): 0 of 60
Small-diameter neurons in which action potentials were elicited ([3]; WT DRG): 5 out of 50
Small-diameter neurons in which action potentials were elicited ([3]; WT DRG, listed as Bilirubin): 5 of 50
